Experimental data as given in patent publication US20250296959A1, “B7-H3 TARGETING PEPTIDES AND CONSTRUCTS THEREOF” (Mariana Oncology Inc., priority 2024, published 2025).
Starred links: 1 amine or outer side, 2 acyl side, 3 side chain; linkers in the order of their positions; H or OH if unused. Positions of bridges follow the written chain, without caps; N, C: chain ends. Non-standard residues stand in square brackets, D forms with d. Residues, ends and D or L forms follow the SMILES beside them. Groups on a side chain read outwards from the residue. *: point of attachment. Ala(piperidin-4-yl) = O=C([C@H](CC1CCN([*:3])CC1)N[*:1])[*:2]; DOTA = O=C(O)CN1CCN(CC(=O)O)CCN(CC(=O)*)CCN(CC(=O)O)CC1; Phe(4-COOH) = N[C@@H](Cc1ccc(C(=O)O)cc1)C(=O)O; Trp(5-F) = N[C@@H](Cc1c[nH]c2ccc(F)cc12)C(=O)O; X1 = C[C@@H](c1ccccc1)[C@H](N[*:1])C(=O)[*:2]; Phe(4-F) = N[C@@H](Cc1ccc(F)cc1)C(=O)O; 1Nal = N[C@@H](Cc1cccc2ccccc12)C(=O)O; Ala(4-THP) = N[C@@H](CC1CCOCC1)C(=O)O; AEF = NCCOc1ccc(C[C@H](N)C(=O)O)cc1; N(CH2CH2COOH)Gly = O=C(O)CCNCC(=O)O; Val(3-OH) = CC(C)(O)[C@H](N)C(=O)O; 4Pal = N[C@@H](Cc1ccncc1)C(=O)O; aThr = C[C@H](O)[C@H](N)C(=O)O; PEG4 = NCCOCCOCCOCCOCCC(=O)O; Tle = CC(C)(C)[C@H](N)C(=O)O; hLeu = CC(C)CC[C@H](N)C(=O)O; NMeS = CN[C@@H](CO)C(=O)O; Nle = CCCC[C@H](N)C(=O)O

Target: T1, human 4lg B7-H3 (Homo sapiens, UniProt Q5ZPR3)
T1 sequence (Q5ZPR3 29-534): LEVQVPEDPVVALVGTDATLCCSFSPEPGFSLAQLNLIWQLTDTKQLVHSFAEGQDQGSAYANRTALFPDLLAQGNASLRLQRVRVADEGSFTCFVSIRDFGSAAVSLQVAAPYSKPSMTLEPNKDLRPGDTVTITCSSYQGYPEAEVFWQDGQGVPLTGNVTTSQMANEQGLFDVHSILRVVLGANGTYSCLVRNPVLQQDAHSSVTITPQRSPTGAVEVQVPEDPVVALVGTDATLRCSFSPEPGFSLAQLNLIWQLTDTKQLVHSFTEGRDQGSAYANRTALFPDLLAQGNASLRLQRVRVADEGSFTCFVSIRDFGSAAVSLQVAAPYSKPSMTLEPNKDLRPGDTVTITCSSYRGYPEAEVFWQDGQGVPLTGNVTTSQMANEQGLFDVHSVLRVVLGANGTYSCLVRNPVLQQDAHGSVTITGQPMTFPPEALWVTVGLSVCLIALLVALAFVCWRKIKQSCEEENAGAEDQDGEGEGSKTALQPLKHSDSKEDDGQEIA
Assay: Affinity determination by surface plasmon resonance (SPR) to 4Ig B7-H3
Details: SPR KD—25° C., 4Ig B7-H3; 25° C. flow cell temperature

Row | Structure (SMILES) | Kd [nM]
1 | CC(=O)N[C@@H](CCC(C)C)C(=O)N[C@@H](Cc1ccc(O)cc1)C(=O)N[C@H]1CSSC[C@@H](C(=O)N[C@@H](Cc2cccc3ccccc23)C(=O)N[C@@H](Cc2ccccc2)C(=O)N(C)[C@@H](CO)C(=O)N[C@H](CCCCNC(=O)CN2CCN(CC(=O)O)CCN(CC(=O)O)CCN(CC(=O)O)CC2)C(N)=O)NC(=O)[C@H](CC2CCOCC2)NC(=O)[C@H](C(C)C)NC(=O)[C@H](CC(=O)O)NC(=O)[C@H](Cc2ccncc2)NC(=O)[C@H](CCCCN)NC(=O)CNC(=O)[C@H](C(C)(C)C)NC1=O [compound 223, Ac-hLeu-Y-C-Tbg-G-K-4PyA-D-V-ThpA-C-1Nal-F-NMeSer-dLys(DOTA)-CONH2] (Ac-[hLeu]YC[Tle]GK[4Pal]DV[Ala(4-THP)]C[1Nal]F[NMeS][dK](DOTA)-NH2; disulfide 3-11) | 10 to 100
2 | CC(=O)N[C@@H](CCC(C)C)C(=O)N[C@@H](Cc1ccc(O)cc1)C(=O)N[C@H]1CSSC[C@@H](C(=O)N[C@@H](Cc2c[nH]c3ccccc23)C(=O)N[C@@H](Cc2ccccc2)C(=O)N[C@H](C(=O)N[C@H](CCCCNC(=O)CN2CCN(CC(=O)O)CCN(CC(=O)O)CCN(CC(=O)O)CC2)C(N)=O)[C@@H](C)O)NC(=O)[C@H](Cc2ccc(O)cc2)NC(=O)[C@H]([C@H](C)O)NC(=O)[C@H](CC(=O)O)NC(=O)[C@H](Cc2ccc(O)cc2)NC(=O)[C@H](CCCCN)NC(=O)CNC(=O)[C@H](C(C)C)NC1=O [compound 125, Ac-hLeu-Y-C-V-G-K-Y-D-alloThr-Y-C-W-F-Thr-dLys(DOTA)-CONH2] (Ac-[hLeu]YCVGKYD[aThr]YCWFT[dK](DOTA)-NH2; disulfide 3-11) | 100 to 300
3 | CC(=O)N[C@@H](CCC(C)C)C(=O)N[C@@H](Cc1ccc(F)cc1)C(=O)N[C@H]1CSSC[C@@H](C(=O)N[C@@H](Cc2c[nH]c3ccc(F)cc23)C(=O)N[C@@H](Cc2ccccc2)C(=O)N[C@H](C(=O)N[C@H](CCCCNC(=O)CN2CCN(CC(=O)O)CCN(CC(=O)O)CCN(CC(=O)O)CC2)C(N)=O)[C@@H](C)O)NC(=O)[C@H](Cc2ccc(O)cc2)NC(=O)[C@H](C(C)C)NC(=O)[C@H](CC(=O)O)NC(=O)[C@H](Cc2ccc(O)cc2)NC(=O)[C@H](CCCCN)NC(=O)CNC(=O)[C@H](C(C)C)NC1=O [compound 192, Ac-hLeu-4FPhe-C-V-G-K-Y-D-V-Y-C-5FW-F-Thr-dLys(DOTA)-CONH2] (Ac-[hLeu][Phe(4-F)]CVGKYDVYC[Trp(5-F)]FT[dK](DOTA)-NH2; disulfide 3-11) | 1 to 10
4 | CCCC[C@H](NC(C)=O)C(=O)N[C@@H](Cc1ccc(O)cc1)C(=O)N[C@H]1CSSC[C@@H](C(=O)N[C@@H](Cc2c[nH]c3ccccc23)C(=O)N[C@@H](Cc2ccccc2)C(=O)N[C@H](C(=O)N[C@H](CCCCNC(=O)CN2CCN(CC(=O)O)CCN(CC(=O)O)CCN(CC(=O)O)CC2)C(N)=O)[C@@H](C)O)NC(=O)[C@H](Cc2ccc(O)cc2)NC(=O)[C@H](C(C)(C)C)NC(=O)[C@H](CC(=O)O)NC(=O)[C@H](Cc2ccc(O)cc2)NC(=O)[C@H](CCCCN)NC(=O)CNC(=O)[C@H](C(C)C)NC1=O [compound 62, Ac-Nle-Y-C-V-G-K-Y-D-Tbg-Y-C-W-F-Thr-dLys(DOTA)-CONH2] (Ac-[Nle]YCVGKYD[Tle]YCWFT[dK](DOTA)-NH2; disulfide 3-11) | 100 to 300
5 | CC(=O)N[C@@H](CCC(C)C)C(=O)N[C@@H](Cc1ccc(O)cc1)C(=O)N[C@H]1CSSC[C@@H](C(=O)N[C@@H](Cc2c[nH]c3ccc(F)cc23)C(=O)N[C@@H](Cc2ccccc2)C(=O)N(C)[C@@H](CO)C(=O)N[C@H](CCCCNC(=O)CN2CCN(CC(=O)O)CCN(CC(=O)O)CCN(CC(=O)O)CC2)C(N)=O)NC(=O)[C@H](Cc2ccc(O)cc2)NC(=O)[C@H](C(C)C)NC(=O)[C@H](CC(=O)O)NC(=O)[C@H](Cc2ccc(O)cc2)NC(=O)[C@H](CCCCN)NC(=O)CNC(=O)[C@H](C(C)C)NC1=O [compound 148, Ac-hLeu-Y-C-V-G-K-Y-D-V-Y-C-5FW-F-NMeSer-dLys(DOTA)-CONH2] (Ac-[hLeu]YCVGKYDVYC[Trp(5-F)]F[NMeS][dK](DOTA)-NH2; disulfide 3-11) | < 1
6 | CC(=O)N[C@@H](CCC(C)C)C(=O)N[C@@H](Cc1ccc(O)cc1)C(=O)N[C@H]1CSSC[C@@H](C(=O)N[C@@H](Cc2c[nH]c3ccc(F)cc23)C(=O)N[C@@H](Cc2ccccc2)C(=O)N2CCC[C@H]2C(=O)N[C@H](CCCCNC(=O)CN2CCN(CC(=O)O)CCN(CC(=O)O)CCN(CC(=O)O)CC2)C(N)=O)NC(=O)[C@H](Cc2ccc(O)cc2)NC(=O)[C@H](C(C)C)NC(=O)[C@H](CC(=O)O)NC(=O)[C@H](Cc2ccc(C(=O)O)cc2)NC(=O)[C@H](CCCCN)NC(=O)CNC(=O)[C@H](C(C)C)NC1=O [compound 291, Ac-hLeu-Y-C-V-G-K-4COOHPhe-D-V-Y-C-5FW-F-Pro-dLys(DOTA)-CONH2] (Ac-[hLeu]YCVGK[Phe(4-COOH)]DVYC[Trp(5-F)]FP[dK](DOTA)-NH2; disulfide 3-11) | < 1
7 | CC(=O)N[C@@H](CCC(C)C)C(=O)N[C@@H](Cc1ccc(O)cc1)C(=O)N[C@H]1CSSC[C@@H](C(=O)N[C@@H](Cc2c[nH]c3ccc(F)cc23)C(=O)N[C@@H](Cc2ccccc2)C(=O)N2CCC[C@H]2C(N)=O)NC(=O)[C@H](Cc2ccc(O)cc2)NC(=O)[C@H](C(C)C)NC(=O)[C@H](CC(=O)O)NC(=O)[C@H](Cc2ccc(OCCNC(=O)CN3CCN(CC(=O)O)CCN(CC(=O)O)CCN(CC(=O)O)CC3)cc2)NC(=O)[C@H](CC2CCNCC2)NC(=O)CNC(=O)[C@H](C(C)C)NC1=O [compound 301, Ac-hLeu-Y-C-V-G-PipAla-AEF(DOTA)-D-V-Y-C-5FW-F-Pro-CONH2] (Ac-[hLeu]YCVG[Ala(piperidin-4-yl)][AEF](DOTA)DVYC[Trp(5-F)]FP-NH2; disulfide 3-11) | < 1

Same assay, conditions: SPR KD—37° C., 4Ig B7-H3; 37° C. flow cell temperature

Row | Structure (SMILES) | Kd [nM]
8 | CC(=O)NCCCC[C@@H]1NC(=O)CNC(=O)[C@H](C(C)(C)C)NC(=O)[C@@H](NC(=O)[C@H](Cc2ccc(O)cc2)NC(=O)[C@H](CCC(C)C)NC(C)=O)CSSC[C@@H](C(=O)N[C@@H](Cc2c[nH]c3ccc(F)cc23)C(=O)N[C@H](C(=O)N[C@H](C(=O)N[C@H](C)C(=O)O)C(C)(C)O)[C@@H](C)c2ccccc2)NC(=O)[C@H](Cc2ccc(O)cc2)NC(=O)[C@H](C(C)C)NC(=O)[C@H](CC(=O)O)NC(=O)[C@H](CC2CCN(C(=O)CCOCCOCCOCCOCCNC(=O)CN3CCN(CC(=O)O)CCN(CC(=O)O)CCN(CC(=O)O)CC3)CC2)NC1=O [compound 512, Ac-hLeu-Y-C-Tbg-G-Lys(Ac)-Pip(PEG4-DOTA)Ala-D-V-Y-C-5FW-[(2S, 3S)beta-Me-Phe]-hydroxyVal-dAla-COOH] (Ac-[hLeu]YC[Tle]GK(Ac)[Ala(piperidin-4-yl)]([PEG4-DOTA])DVYC[Trp(5-F)][X1][Val(3-OH)][dA]-OH; disulfide 3-11) | < 1
9 | CC(=O)N[C@@H](CCC(C)C)C(=O)N[C@@H](Cc1ccc(O)cc1)C(=O)N[C@H]1CSSC[C@@H](C(=O)N[C@@H](Cc2c[nH]c3ccc(F)cc23)C(=O)N[C@H](C(=O)N[C@H](C(=O)N[C@@H](CCCCNC(=O)CN2CCN(CC(=O)O)CCN(CC(=O)O)CCN(CC(=O)O)CC2)C(=O)O)C(C)(C)O)[C@@H](C)c2ccccc2)NC(=O)[C@H](Cc2ccc(O)cc2)NC(=O)[C@H](C(C)C)NC(=O)[C@H](CC(=O)O)NC(=O)[C@H](CC2CCOCC2)NC(=O)[C@H](CC2CCNCC2)NC(=O)CNC(=O)[C@H](C(C)(C)C)NC1=O [compound 509, Ac-hLeu-Y-C-Tbg-G-PipAla-ThpA-D-V-Y-C-5FW-[(2S, 3S)beta-Me-Phe]-hydroxyVal-Lys(DOTA)-COOH] (Ac-[hLeu]YC[Tle]G[Ala(piperidin-4-yl)][Ala(4-THP)]DVYC[Trp(5-F)][X1][Val(3-OH)]K(DOTA)-OH; disulfide 3-11) | < 1
10 | CCCC[C@H](NC(C)=O)C(=O)N[C@@H](Cc1ccc(O)cc1)C(=O)N[C@H]1CSSC[C@@H](C(=O)N[C@@H](Cc2c[nH]c3ccccc23)C(=O)N[C@@H](Cc2ccccc2)C(N)=O)NC(=O)[C@H](Cc2ccc(O)cc2)NC(=O)[C@H](C(C)C)NC(=O)[C@H](CC(=O)O)NC(=O)[C@H](Cc2ccc(O)cc2)NC(=O)[C@H](CCCCN)NC(=O)CN(CCC(=O)O)C(=O)[C@H](C(C)C)NC1=O [compound 53, Ac-Nle-Y-C-V-N(CH2)2COOHGly-K-Y-D-V-Y-C-W-F-CONH2] (Ac-[Nle]YCV[N(CH2CH2COOH)Gly]KYDVYCWF-NH2; disulfide 3-11) | 100 to 300
11 | CCCC[C@H](NC(=O)[C@H](Cc1c[nH]c2ccc(F)cc12)NC(=O)[C@@H]1CSSC[C@H](NC(=O)[C@H](Cc2ccc(O)cc2)NC(=O)[C@H](CCC(C)C)NC(C)=O)C(=O)N[C@@H](C(C)(C)C)C(=O)NCC(=O)N[C@@H](CCCCN)C(=O)N[C@@H](CC2CCOCC2)C(=O)N[C@@H](CC(=O)O)C(=O)N[C@@H](C(C)C)C(=O)N[C@@H](Cc2ccc(O)cc2)C(=O)N1)C(=O)N[C@H](C(=O)N[C@H](CCCCNC(=O)CN1CCN(CC(=O)O)CCN(CC(=O)O)CCN(CC(=O)O)CC1)C(=O)O)C(C)(C)O [compound 327, Ac-hLeu-Y-C-Tbg-G-K-ThpA-D-V-Y-C-5FW-Nle-hydroxyVal-dLys(DOTA)-COOH] (Ac-[hLeu]YC[Tle]GK[Ala(4-THP)]DVYC[Trp(5-F)][Nle][Val(3-OH)][dK](DOTA)-OH; disulfide 3-11) | 10 to 100
